This is an account of results in patent publication US11090310B2, “Methods and compositions for treating hypertriglyceridemia” (THE REGENTS OF THE UNIVERSITY OF CALIFORNIA, priority 2016, dated 2021).

Test [1] is described as follows: Plasma triglyceride levels of patients with GPIHBP1 autoantibodies under drug treatment (case follow-up). The test is classed as in vivo, human. The note with it: for effect of treatment on plasma triglycerides / hypertriglyceridemia (in words): case reports of single patients (111, 157, 164).
Test [2] concerns autoantibodies. The note with it: in patients, literature reports; cited from earlier work.
Test [3] deals with T1, V5-tagged human LPL (Homo sapiens, UniProt P06858).
T1 construct: made in house
T1 sequence (P06858 28-475): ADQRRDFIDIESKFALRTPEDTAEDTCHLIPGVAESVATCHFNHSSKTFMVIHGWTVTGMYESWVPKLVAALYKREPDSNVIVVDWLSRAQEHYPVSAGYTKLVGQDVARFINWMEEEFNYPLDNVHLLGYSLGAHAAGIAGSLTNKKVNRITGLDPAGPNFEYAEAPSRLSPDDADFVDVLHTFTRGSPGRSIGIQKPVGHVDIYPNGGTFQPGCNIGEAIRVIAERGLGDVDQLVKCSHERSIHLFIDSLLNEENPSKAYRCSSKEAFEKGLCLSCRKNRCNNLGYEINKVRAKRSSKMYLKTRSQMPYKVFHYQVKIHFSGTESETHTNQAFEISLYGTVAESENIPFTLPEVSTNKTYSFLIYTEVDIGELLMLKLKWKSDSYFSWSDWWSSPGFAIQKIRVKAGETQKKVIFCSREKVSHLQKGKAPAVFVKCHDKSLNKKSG
The test is described as follows: Cell-based LPL-GPIHBP1 binding assay of GPIHBP1 variants. The note with it: transfected CHO pgsA-745 cells or HUVEC. How it is done: Expression vectors for S-protein-tagged wild-type (wt) GPIHBP1, GPIHBP1-G175R, and GPIHBP1-W109S (or the empty vector) were transfected into CHO pgsA-745 cells or human umbilical vein endothelial cells (HUVEC). After 1 day, the cells were washed three times in PBS and incubated for 1 h at 4° C. with V5-tagged human LPL (900 ng/well). Then the cells were washed six times in PBS, and cell lysates were collected in RIPA buffer (Sigma) containing a protease inhibitor cocktail (Roche). Proteins were separated by SDS-PAGE, and western blots were performed under reducing conditions with a goat antibody against the S-protein tag (Abcam, 5 μg/ml), followed by an IRdye680-donkey anti-goat IgG (LI-COR, 1:2000) and an IRdye800-V5 antibody (1:500).

Turning to n−3 fatty acids, the “effect of treatment on plasma triglycerides / hypertriglyceridemia (in words)” value in test [1] was “resistant”.
Consider `COc1c(C)c2c(c(O)c1C/C=C(\C)CCC(=O)OCCN1CCOCC1)C(=O)OC2` [Mycophenolate mofetil], for which the “effect of treatment on plasma triglycerides / hypertriglyceridemia (in words)” value in test [1] was “failed to lower the plasma triglyceride levels”. In test [1] (single patients: 101 (prednisolone 10 mg/day, salazosulfapyridine 1000 mg/day), 111, 164 (mycophenolate mofetil 750 + 500 mg/day, hydroxychloroquine 100 mg/day)), the “Follow-up (mg/dl): follow-up plasma triglyceride levels after treatment” value is recorded as 2,573-4,085 mg/dl.
On to Rituximab, for which the reduction of autoantibodies entry in test [2] is reported as “reducing the production of autoantibodies in patients”.
For Belimumab, the reduction of autoantibodies entry in test [2] is “reduce autoantibodies”.

B1: GPIHBP1-G175R: GPIHBP1 with G175R missense substitution in the carboxyl-terminal hydrophobic domain (protein)
chain: QTQQEEEEEDEDHGPDDYDEEDEDEVEEEETNRLPGGRSRVLLRCYTCKSLPRDERCNLTQNCSHGQTCTTLIAHGNTESGLLTTHSTWCTDSCQPITKTVEGTQVTMTCCQSSLCNVPPWQSSRVQDPTG
modifications: left off: small tags and cut ends
notes: GPIHBP1 with G175R missense substitution in the carboxyl-terminal hydrophobic domain
Regarding B1, the “LPL binding by GPIHBP1 variant expressed on cells” value in test [3] is “binds LPL avidly”.

B2: GPIHBP1-W109S: mutant GPIHBP1 which lacks the ability to bind LPL, used as control (protein)
chain: QTQQEEEEEDEDHGPDDYDEEDEDEVEEEETNRLPGGRSRVLLRCYTCKSLPRDERCNLTQNCSHGQTCTTLIAHGNTESGLLTTHSTSCTDSCQPITKTVEGTQVTMTCCQSSLCNVPPWQSSRVQDPTG
modifications: left off: small tags and cut ends
B2: the “LPL binding by GPIHBP1 variant expressed on cells” value in test [3] is recorded as “lacks the ability to bind LPL”.
